Data on seven compounds can be found in article PMC9503009, “Determining Ligand and Ion-Induced Conformational Changes in Serotonin Transporter with Its Fluorescent Substrates” (International Journal of Molecular Sciences, 2022).

Assay type in all cases: cell-based
For assay [1], the target named is T1, SERT S277C/X5C (Rattus norvegicus, UniProt P31652, C109A/C15A/C21A/C357I/C622A/S277C).
T1 construct: expressed in transfected cells
Briefly: MTS reagent inhibition of ASP+ binding in digitonin-permeabilized cells (cytoplasmic pathway cysteine accessibility). Here is the method:
After 3 × rapid washing with KRH buffer, APP^+ or ASP^+ accumulation was measured as described under “Materials and Methods”. […] These representative images were parallelly acquired from one experiment. […] After 3 × washing, ASP^+ binding to the cell membrane was measured as described under “Materials and Methods”. […] (D) The effects of MTSET on ASP^+ binding of S277C/X5C and X5C. […] After 3 × rapid washing, ASP^+ binding was measured as described under “Materials and Methods”.
After washing to remove excess MTSEA and ligands, ASP^+ binding was measured as described under “Materials and Methods”. […] The IC50 values of MTSEA inhibition of ASP^+ binding were converted to rate constants.
The cells stably expressing Y107C/C109A were treated at 22 °C for 15 min with indicated concentrations of MTSET in the absence or presence of 10 μM vilazodone. After washing to remove excess MTSET and vilazodone, APP^+ uptake was measured as described under “Materials and Methods”. […] The IC50 values of MTSET inhibition were used to calculate rate constants as described under “Materials and Method”. Error bars represent SEM from three experiments. […] After washing to remove excess MTSEA and vilazodone, ASP^+ binding was measured as described under “Materials and Methods”. […] The IC50 values of MTSEA inhibition of ASP^+ binding were converted to rate constants. […]
For cytoplasmic pathway accessibility, measurements were performed with the cells stably expressing S277C/X5C. […] The cells, then, were washed free of unreacted MTSEA and ligands, ASP^+ binding was measured by adding 500 μL KRH buffer containing 10 μM ASP^+ and incubating at 22 °C for 5 min. Excess ASP^+ was removed by 3 × rapid washing with KRH buffer and ASP^+ fluorescence retained in the cell membrane was measured by confocal imaging analysis in the permeabilized cells. […] The MTSEA IC50 value was determined and used to calculate the rate constant for S277C/X5C modification.

In assay [2] the target is T2, SERT S404C/C109A (Rattus norvegicus, UniProt P31652, C109A/S404C).
T2 construct: expressed in transfected cells
Briefly: MTSET inhibition of APP+ uptake in live cells (extracellular pathway cysteine accessibility). The method, then:
(§1) Figure 3 Reactivity of the extracellular cysteine mutants with MTSET. (A) MTSET concentration-dependent inhibition of APP^+ uptake. The cells stably expressing C109A, Y107C/C109C, or S404C/C109A were incubated for 15 min with indicated concentrations of MTSET. The MTSET concentration giving half-maximal inhibition of APP^+ accumulation in the cells was used to calculate inactivation rate constants as plotted in (B). […] Representative images of APP^+ uptake by C109A, Y107C/C109A, or S404C/C109A under various MTSET concentrations were shown in Supplemental Figure S1. […] (B) Rate constants of MTSET inhibition of APP^+ uptake. At the half-maximal concentration, the half-time is the assay time (15 min) and the first-order rate constant is 7.7 × 10^−4 s^−1. This rate constant was divided by the half maximal MTSET concentration from (A) to obtain the pseudo first-order modification rate constant. Error bars represent SEM of three experiments.
(§2) The cells stably expressing Y107C/C109A or S404C/C109A were preincubated with indicated ligands and MTSET at a concentration of 0.01 mM for Y107C/C109A or 0.002 mM for S404C/C109A at 22 °C for 15 min, respectively. At the end of this incubation, cells were washed free of MTSET and ligands into KRH buffer containing NaCl and APP^+. APP^+ uptake was measured as described under “Materials and Methods”. Error bars represent SEM from three experiments. Asterisks and hashtags indicate statistically significant changes (p < 0.05) in the accumulated APP^+ fluorescence compared with the corresponding control (MTSET alone).
Accessibility of the cysteine residues in the extracellular pathway was measured by reactivity of Y107C/C109A and S404C/C109A mutants with MTSET. The cells stably expressing Y107C/C109A or S404C/C109A were incubated with MTSET over a range of concentrations in HEPES buffer containing indicated ligands or ions at 22 °C for 15 min. After excess MTSET and ligands were removed by rapid 3 × washing with the same buffer, the cells were then incubated with APP^+ at a final concentration of 2 μM in KRH buffer at 22 °C for another 5 min. The extent of APP^+ accumulated in the cells was determined by confocal imaging analysis in the live cells. To measure the effects of antidepressants, substrate 5-HT, or other ligands such as 5-HTP or tryptophan, where added, was present at 10 μM. To measure the effects of ions, 150 mM […] (NMDG) gluconate, and NMDG chloride, sodium isethionate, or NaCl was used as indicated. These measurements of reactivity depend on the ability of MTSET to inactivate APP^+ transport activity by an allosteric mechanism. The MTSET concentration causing half-maximal inactivation was determined and used to calculate the rate constant for cysteine modification, as described previously.

Assay [3] concerns the target T3, SERT Y107C/C109A (Rattus norvegicus, UniProt P31652, C109A/Y107C).
T3 construct: expressed in transfected cells
The description is as above. The method, then: as §1
(A) MTSET concentration-dependent inhibition of APP^+ uptake. […] After washing to remove excess MTSET and ligands, APP^+ uptake was measured as described under “Materials and Methods”. […] (B) Rate constants of MTSET inhibition of APP^+ uptake. The IC50 values of MTSET inhibition were used to calculate rate constants as described under “Materials and Methods”. Error bars represent SEM from three experiments.
as §2
The cells stably expressing Y107C/C109A were treated at 22 °C for 15 min with indicated concentrations of MTSET in the absence or presence of 10 μM vilazodone. After washing to remove excess MTSET and vilazodone, APP^+ uptake was measured as described under “Materials and Methods”. […] The IC50 values of MTSET inhibition were used to calculate rate constants as described under “Materials and Method”. Error bars represent SEM from three experiments. […] After washing to remove excess MTSEA and vilazodone, ASP^+ binding was measured as described under “Materials and Methods”. […] The IC50 values of MTSEA inhibition of ASP^+ binding were converted to rate constants.

Assay [4] addresses T3, SERT Y107C/C109A. Put plainly: Kinetic analysis of APP+ or ASP+ uptake by fluorescence imaging in stably expressing cells. The following applies: 22 °C, 5 min.
The target of assay [5] is T2, SERT S404C/C109A. The description is as above. As to conditions: for Km / Vmax: uptake by cells stably expressing S404C/C109A, 22 °C, 5 min.
The target in assay [6] is T4, WT-SERT (Rattus norvegicus, UniProt P31652).
T4 construct: expressed in transfected cells
Described as above. The following applies: 22 °C, 5 min, mean ± SEM of three experiments. The method, then:
Figure 1 Kinetic analysis and ion requirements for APP^+ or ASP^+ uptake by SERT. (A) Kinetic analysis for APP^+ or ASP^+ uptake by SERT. […] After washing to remove excess APP^+ or ASP^+, the accumulated fluorescence within the cells (n ≥ 30) were counted and normalized to the cell areas, as described under “Materials and Methods”. […] (B) Ion-dependence of APP^+ or ASP^+ uptake. APP^+ or ASP^+ uptake was measured by incubating the cells stably expressing WT- SERT with APP^+ at 2 μM or ASP^+ at 10 μM in HEPES buffer containing 150 mM NMDGCl, sodium isethionate, or NaCl, respectively. Error bars represent SEM of three experiments.
The cells stably expressing SERT-WT or mutants were wet mounted on polylysine-coated glass slides and applied for indicated treatments. In brief, the cells were washed twice with 500 μL KRH buffer containing 20 mM HEPES, pH 7.4, 120 mM NaCl, 1.3 mM KCl, 2.2 mM CaCl2, 1.2 mM MgSO4, and 0.1% (w/v) glucose. APP^+ or ASP^+ accumulation was measured by adding 500 μL KRH buffer containing 2 μM APP^+ or 10 μM ASP^+ and incubating for 5 min at 22 °C. Excess APP^+ or ASP^+ was then removed by rapid washing three times with 500 μL KRH buffer. The extent of APP^+ or ASP^+ accumulated in the cells was determined with confocal imaging analysis.
Images were acquired at 22 °C using a 20 or 60 × water immersion objective with the Zeiss LSM 900 confocal microscope. APP^+ and ASP^+ were excited by an argon laser with excitation peak at 488 nm. APP^+ fluorescence was captured at 490–565 nm and ASP^+ fluorescence at 600–650 nm. Images were analyzed using National Institutes of Health ImageJ v1.53q. Fluorescence intensity in each cell was counted and normalized to the cell area (mean fluorescence). To obtain ASP^+ binding on the cell surface, intracellular ASP^+ fluorescence intensity was subtracted from total fluorescence in each cell, and the resulting ASP^+ fluorescence on the cell surface was then normalized to the cell membrane area.

The target of assay [7] is T1, SERT S277C/X5C. Described as above. As to conditions: for Km / Vmax: uptake by cells stably expressing S277C/X5C, 22 °C, 5 min.
Where [8] appears, read: S404C/C109A, MTSET 0.002 mM, ligand 10 μM, 22 °C, 15 min.
Where [9] appears, read: Y107C/C109A, MTSET 0.01 mM, ligand 10 μM, 22 °C, 15 min.

The structures appear in SMILES notation. Where two headings read alike, the source gives them in different places.

Turning to `NCCc1c[nH]c2ccc(O)cc12` [5-HT, 5-hydroxytrypatamine], the “increase of rate constant of MTSEA modification compared with control” value in assay [1] (S277C/X5C, 10 μM ligand in the presence of NaCl, 25 μg/mL digitonin) is ~ 2 folds. The “effect of ligand on reactivity with MTSET” value (from here on “effect of ligand”) in assay [2] (setting [8]) and in assay [3] (setting [9]) was “significantly decreased the reactivity” each time. Moreover, in assay [3] (Y107C/C109A, 10 μM ligand with Na+ and Cl−, control MTSET alone), the “decrease of MTSET rate constant compared with control” value is on record as around 2 folds.

`N[C@@H](Cc1c[nH]c2ccc(O)cc12)C(=O)O` [5-HTP, 5-hydroxytryptophan]: the “effect of ligand” value in assay [2] and in assay [3] was “little effect on the reactivity” each time.

The term Km denotes the concentration of substrate that gives half-maximal velocity. On to `CN(C)c1ccc(-c2cc[n+](C)cc2)cc1` [APP^+, 4-[4-(dimethylamino)phenyl]-1-methylpyridinium], for which the Km in assay [4] was 2.39 ± 0.04 µM; in assay [5], 2.07 ± 0.04 µM; in assay [6], 2.63 ± 0.06 µM; in assay [7], 1.99 ± 0.05 µM. For the same compound, the Vmax was 39.4 ± 1.8 AFU in assay [4], 34.9 ± 1.2 AFU in assay [5], 30.5 ± 1.4 AFU in assay [6] and 26.5 ± 1.1 AFU in assay [7].

As to `CN(C)c1ccc(C=Cc2cc[n+](C)cc2)cc1` [ASP^+, 4-(4-(dimethylamino)styryl)-N-methylpyridinium], the Km in assay [4] came to 9.32 ± 0.48 µM; in assay [5], 8.87 ± 0.59 µM; in assay [6], 8.52 ± 0.15 µM; in assay [7] it was 9.66 ± 0.94 µM. Further, the Vmax in assay [4] was determined as 59.9 ± 4.2 AFU; in assay [5], 53.2 ± 3.8 AFU; in assay [6], 75.8 ± 5.3 AFU; in assay [7], 40.2 ± 3.0 AFU. Moreover, the “Vmax value relative to the WT” value in assay [5] (S404C/C109A, ASP+ as substrate) is reported as around 70%; in assay [7] (S277C/X5C, ASP+ as substrate) it was around 50%.

Turning to `N[C@@H](Cc1c[nH]c2ccccc12)C(=O)O` [Trp, tryptophan], the “effect of ligand” value in assay [2] and in assay [3] was “little effect on the reactivity” throughout.

As to `CN(C)CCCN1c2ccccc2CCc2ccccc21` [imipramine], the “effect of ligand” value in assay [2] (setting [8]) and in assay [3] (setting [9]) was “markedly increased the reactivity” in each case.

Take `N#Cc1ccc2[nH]cc(CCCCN3CCN(c4ccc5oc(C(N)=O)cc5c4)CC3)c2c1` [vilazodone]: in assay [1] (digitonin-permeabilized cells expressing S277C/X5C, 10 μM vilazodone), the “effect on Cys277 reactivity with MTSEA” value is “decreased Cys277 reactivity”. The “effect on Cys107 reactivity with MTSET” value in assay [3] (intact cells expressing Y107C/C109A, 10 μM vilazodone) is recorded as “increased Cys107 reactivity”.
